Measured values as given in article PMC10226132, “First-in-Class Selective Inhibitors of the Lysine Acetyltransferase KAT8” (Journal of Medicinal Chemistry, 2023).
Like-named read-outs stand apart in the source and are kept apart here.

How the values were obtained:
Assay type in all cases: biochemical
KAT8 = target: T1, KAT8 (Homo sapiens, UniProt Q9H7Z6); assay: Radioactive KAT8 inhibition assay
T1 construct: using the previously purified KAT8 (173–458, 5 nM); 6xHis tag with TEV protease cleavage site (N, cleaved yes); made in house; host or cells: E. coli BL21(DE3)
T1 sequence (Q9H7Z6 173-458): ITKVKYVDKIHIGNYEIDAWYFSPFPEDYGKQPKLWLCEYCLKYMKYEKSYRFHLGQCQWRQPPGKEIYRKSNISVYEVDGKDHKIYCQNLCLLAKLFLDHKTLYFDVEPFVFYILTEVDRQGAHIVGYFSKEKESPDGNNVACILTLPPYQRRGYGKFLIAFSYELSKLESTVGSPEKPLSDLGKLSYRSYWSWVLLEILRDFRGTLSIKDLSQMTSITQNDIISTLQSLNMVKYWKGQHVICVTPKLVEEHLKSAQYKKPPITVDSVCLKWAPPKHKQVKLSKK
Method: Purified KAT8 was incubated with the relevant inhibitor (1% DMSO final) in a 2-fold serial dilution starting at 200 μM for 20 min at rt. Then, [^3H]Ac-CoA and biotinylated peptide were added to a total assay volume of 50 μL and the reaction mixture was incubated at rt for 4 h. The reaction was stopped, and the mixture was transferred to a 96-well streptavidin scintillant coated FlashPlate (Perkin Elmer) and incubated for 60 min at rt. The FlashPlate was washed with 0.1% Tween-20, and the liquid scintillation counting (MicroBeta Microplate Counter, Perkin Elmer) was employed to measure the radioactive signal. Experiments were performed in biological triplicates. Signal reduction compared to control was plotted (as inhibition percentage) as a function of compound concentration and fitted by nonlinear regression (GraphPad Prism 8.0) finally yielding the IC50 values.

KAT2B = target: T2, KAT2B (Homo sapiens, UniProt Q92831); assay: HotSpot KAT assay, KAT2B; details: enzyme 25 nM; NI = no inhibition at 200 μM; mean ± SD of three independent experiments
T2 construct: KAT2B (aa 492–658, 25 nM); purchased Reaction Biology Corporation
Method: (§1) The effects of the compounds on other KATs were determined using the HotSpot KAT assay (Reaction Biology Corporation, Malvern, PA, USA) according to the supplier’s procedure. The recombinant catalytic domains of human KAT2A (aa 323–837, 15 nM), KAT2B (aa 492–658, 25 nM), KAT3B (aa 1284–1672, 1 nM), KAT6A (aa 488–778, 10 nM), KAT6B (aa 657–1069, 10 nM), and full length human KAT5 (25 nM) and KAT7 (25 nM) were used. Each enzyme was incubated with the relevant histone peptide [H3 peptide for KAT2A, KAT2B, KAT3B, KAT6A, and KAT7 (2.5–5 μM, depending on the KAT isoform); H2A peptide for KAT5 (1.25 μM); H4 peptide for KAT6B (2.5 μM)] as a substrate and radio-isotope-labeled [^3H]Acetyl-CoA (0.2–1.5 μM, depending on the KAT isoform) as an acetyl donor in the assay buffer [50 mM Tris–HCl (pH 8.0), 50 mM NaCl, 0.1 mM EDTA, 1 mM DTT, 0.1 mM PMSF, 1% DMSO] for 1 h at 30 °C in the presence or absence of various compounds (1% DMSO final) titrated in a 2-fold serial dilution starting at 200 μM. Histone peptide acetylation was assessed by liquid scintillation counting using a Tri-Carb 2800TR Liquid Scintillation Analyzer (Perkin Elmer). Experiments were performed in biological triplicates. Signal reduction compared to control was plotted (as inhibition percentage) as a function of compound concentration. In cases in which an IC50 was calculated, the values were fitted by nonlinear regression (GraphPad Prism 8.0).

KAT3B = target: T3, KAT3B (Homo sapiens, UniProt Q09472); assay: HotSpot KAT assay, KAT3B; details: read-out: IC50 KAT3B (1 nM); enzyme 1 nM; NI = no inhibition at 200 μM; mean ± SD of three independent experiments
T3 construct: KAT3B (aa 1284–1672, 1 nM); purchased Reaction Biology Corporation
T3 sequence (Q09472 1284-1672): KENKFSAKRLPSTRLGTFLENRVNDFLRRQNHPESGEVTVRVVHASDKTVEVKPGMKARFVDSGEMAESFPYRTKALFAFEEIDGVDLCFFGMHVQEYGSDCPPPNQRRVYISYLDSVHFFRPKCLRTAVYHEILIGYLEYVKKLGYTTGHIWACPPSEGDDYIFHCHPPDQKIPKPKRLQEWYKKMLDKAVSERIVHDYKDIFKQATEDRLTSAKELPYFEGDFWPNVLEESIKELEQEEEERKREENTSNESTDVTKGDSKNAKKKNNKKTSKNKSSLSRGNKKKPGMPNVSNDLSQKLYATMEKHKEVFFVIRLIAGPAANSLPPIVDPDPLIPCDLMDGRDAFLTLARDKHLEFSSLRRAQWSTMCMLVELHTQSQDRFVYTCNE
Method: The effects of the compounds on other KATs were determined using the HotSpot KAT assay (Reaction Biology Corporation, Malvern, PA, USA) according to the supplier’s procedure. […] Histone peptide acetylation was assessed by liquid scintillation counting using a Tri-Carb 2800TR Liquid Scintillation Analyzer (Perkin Elmer). Experiments were performed in biological triplicates. Signal reduction compared to control was plotted (as inhibition percentage) as a function of compound concentration. In cases in which an IC50 was calculated, the values were fitted by nonlinear regression (GraphPad Prism 8.0).

KAT2A = target: T4, KAT2A (Homo sapiens, UniProt Q92830); assay: HotSpot KAT assay, KAT2A; details: control compound; read-out: IC50 KAT2A (15 nM)
T4 construct: human KAT2A (aa 323–837, 15 nM); purchased Reaction Biology Corporation
Method: as §1

[1] = read-out: IC50 KAT8 (5 nM), enzyme 5 nM, 2-fold serial dilution from 200 μM, NI = no inhibition at 200 μM, mean ± SD of three independent experiments

T2 sequence (Q92831 492-658): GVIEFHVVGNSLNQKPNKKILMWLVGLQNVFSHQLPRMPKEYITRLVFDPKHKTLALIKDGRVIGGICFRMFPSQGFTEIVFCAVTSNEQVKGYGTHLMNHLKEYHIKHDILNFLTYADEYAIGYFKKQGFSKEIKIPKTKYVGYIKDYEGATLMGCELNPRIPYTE
T4 sequence (Q92830 323-837): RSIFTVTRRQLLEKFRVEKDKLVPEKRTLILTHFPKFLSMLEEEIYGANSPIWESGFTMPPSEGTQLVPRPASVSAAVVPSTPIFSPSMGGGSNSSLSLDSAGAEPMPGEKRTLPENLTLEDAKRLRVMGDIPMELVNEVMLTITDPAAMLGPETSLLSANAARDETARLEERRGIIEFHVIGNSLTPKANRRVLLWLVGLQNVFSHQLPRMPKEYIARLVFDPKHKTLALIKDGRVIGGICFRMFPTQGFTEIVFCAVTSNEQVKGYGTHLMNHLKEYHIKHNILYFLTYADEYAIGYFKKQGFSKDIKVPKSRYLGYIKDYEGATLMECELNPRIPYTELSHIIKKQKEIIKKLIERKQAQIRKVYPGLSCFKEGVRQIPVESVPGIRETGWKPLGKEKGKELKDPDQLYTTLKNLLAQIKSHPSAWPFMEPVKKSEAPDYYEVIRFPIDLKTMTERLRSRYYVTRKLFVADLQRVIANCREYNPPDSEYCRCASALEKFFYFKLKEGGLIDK

| SMILES | IC50 (KAT8; [1]) | IC50 (KAT2B) | IC50 (KAT3B) | IC50 (KAT8) | IC50 (KAT2A) |
| --- | --- | --- | --- | --- | --- |
| CC1=NN(c2ccc(C(=O)O)cc2)C(=O)/C1=C\c1cc(C(=O)c2ccccc2Cl)c[nH]1 [Compound 5, (Z)-4-(4-((4-(2-Chlorobenzoyl)-1H-pyrrol-2-yl)methylene)-3-methyl-5-oxo-4,5-dihydro-1H-pyrazol-1-yl)benzoic Acid] | 88.9 ± 12.1 µM | > 200 µM | 5.3 ± 0.3 µM | – | – |
| CC1=NN(c2ccc(C(=O)O)cc2)C(=O)/C1=C\c1cc(C(=O)c2ccccc2C)c[nH]1 [Compound 13, (Z)-4-(3-Methyl-4-((4-(2-methylbenzoyl)-1H-pyrrol-2-yl)methylene)-5-oxo-4,5-dihydro-1H-pyrazol-1-yl)benzoic Acid] | 95 ± 10.2 µM | > 200 µM | 8.9 ± 0.6 µM | – | – |
| CC1=NN(c2ccc(C(=O)O)cc2)C(=O)/C1=C\c1cccs1 [Compound 21, (Z)-4-(3-Methyl-5-oxo-4-(thiophen-2-ylmethylene)-4,5-dihydro-1H-pyrazol-1-yl)benzoic Acid] | 20.8 ± 1.2 µM | > 200 µM | 26.5 ± 1.7 µM | – | – |
| CC1=NN(c2ccc(C(=O)O)cc2)C(=O)/C1=C\c1ccccc1 [Compound 22, (Z)-4-(4-Benzylidene-3-methyl-5-oxo-4,5-dihydro-1H-pyrazol-1-yl)benzoic Acid] | 29.2 ± 1.7 µM | > 200 µM | > 200 µM | – | – |
| CC1=NN(c2ccc(C(=O)O)cc2)C(=O)/C1=C\c1cc[nH]c1 [Compound 23, (Z)-4-(4-((1H-Pyrrol-3-yl)methylene)-3-methyl-5-oxo-4,5-dihydro-1H-pyrazol-1-yl)benzoic Acid] | 33 ± 2 µM | > 200 µM | > 200 µM | – | – |
| CC1=NN(c2ccc(C(=O)O)cc2)C(=O)/C1=C\c1ccn[nH]1 [Compound 24, (Z)-4-(4-((1H-Pyrazol-5-yl)methylene)-3-methyl-5-oxo-4,5-dihydro-1H-pyrazol-1-yl)benzoic Acid] | 44.1 ± 3 µM | > 200 µM | > 200 µM | – | – |
| CC1=NN(c2ccc(C(=O)O)cc2)C(=O)/C1=C\c1c[nH]cn1 [Compound 25, (Z)-4-(4-((1H-Imidazol-4-yl)methylene)-3-methyl-5-oxo-4,5-dihydro-1H-pyrazol-1-yl)benzoic Acid] | 31.8 ± 2.1 µM | > 200 µM | 29.2 ± 1.7 µM | – | – |
| CC1=NN(c2ccc(C(=O)O)cc2)C(=O)/C1=C\c1cc2ccccc2[nH]1 [Compound 26, (Z)-4-(4-((1H-Indol-2-yl)methylene)-3-methyl-5-oxo-4,5-dihydro-1H-pyrazol-1-yl)benzoic Acid] | 20.1 ± 0.9 µM | > 200 µM | 1.6 ± 0.08 µM | – | – |
| CC1=NN(c2ccc(C(=O)O)cc2)C(=O)/C1=C\c1c[nH]c2ccccc12 [Compound 27, (Z)-4-(4-((1H-Indol-3-yl)methylene)-3-methyl-5-oxo-4,5-dihydro-1H-pyrazol-1-yl)benzoic Acid] | 38.1 ± 2.9 µM | > 200 µM | 4.6 ± 0.2 µM | – | – |
| CC1=NN(c2ccc(C(=O)O)cc2)C(=O)/C1=C\c1cccn1C [Compound 28, (Z)-4-(3-Methyl-4-((1-methyl-1H-pyrrol-2-yl)methylene)-5-oxo-4,5-dihydro-1H-pyrazol-1-yl)benzoic Acid] | 15.1 ± 1 µM | > 200 µM | 20.8 ± 1 µM | – | – |
| CC1=NN(c2ccc(C(=O)O)cc2)C(=O)/C1=C\c1cccn1-c1ccccc1 [Compound 29, (Z)-4-(3-Methyl-5-oxo-4-((1-phenyl-1H-pyrrol-2-yl)methylene)-4,5-dihydro-1H-pyrazol-1-yl)benzoic Acid] | 18.6 ± 0.8 µM | > 200 µM | 14.6 ± 0.6 µM | – | – |
| CC1=NN(c2ccc(C(=O)O)cc2)C(=O)/C1=C(/C)c1ccc[nH]1 [Compound 30, (Z)-4-(4-(1-(1H-Pyrrol-2-yl)ethylidene)-3-methyl-5-oxo-4,5-dihydro-1H-pyrazol-1-yl)benzoic Acid] | 19.4 ± 0.9 µM | > 200 µM | > 200 µM | – | – |
| Cc1nn(-c2ccc(C(=O)O)cc2)c(O)c1Cc1ccc[nH]1 [Compound 31, 4-(4-((1H-Pyrrol-2-yl)methyl)-5-hydroxy-3-methyl-1H-pyrazol-1-yl)benzoic Acid] | 17.2 ± 1.2 µM | > 200 µM | > 200 µM | – | – |
| Cc1nn(-c2ccc(C(=O)O)cc2)c(O)c1Cc1ccccc1 [Compound 32, 4-(4-Benzyl-5-hydroxy-3-methyl-1H-pyrazol-1-yl)benzoic Acid] | 26.9 ± 2.3 µM | > 200 µM | > 200 µM | – | – |
| CC(C)C1=NN(c2ccc(C(=O)O)cc2)C(=O)/C1=C\c1ccc[nH]1 [Compound 33, (Z)-4-(4-((1H-Pyrrol-2-yl)methylene)-3-isopropyl-5-oxo-4,5-dihydro-1H-pyrazol-1-yl)benzoic Acid] | 13.9 ± 0.9 µM | > 200 µM | > 200 µM | – | – |
| O=C(O)c1ccc(N2N=C(Cc3ccccc3)/C(=C/c3ccc[nH]3)C2=O)cc1 [Compound 35, (Z)-4-(4-((1H-Pyrrol-2-yl)methylene)-3-benzyl-5-oxo-4,5-dihydro-1H-pyrazol-1-yl)benzoic Acid] | – | > 200 µM | > 200 µM | 38.1 ± 3.8 µM | – |
| CC1=NN(c2cccc(C(=O)O)c2)C(=O)/C1=C\c1ccc[nH]1 [Compound 36, (Z)-3-(4-((1H-Pyrrol-2-yl)methylene)-3-methyl-5-oxo-4,5-dihydro-1H-pyrazol-1-yl)benzoic Acid] | 19.3 ± 1.3 µM | > 200 µM | > 200 µM | – | – |
| CC1=NN(c2ccc(C(N)=O)cc2)C(=O)/C1=C\c1ccc[nH]1 [Compound 37, (Z)-4-(4-((1H-Pyrrol-2-yl)methylene)-3-methyl-5-oxo-4,5-dihydro-1H-pyrazol-1-yl)benzamide] | 33.2 ± 2.4 µM | > 200 µM | > 200 µM | – | – |
| CC1=NN(c2ccc(C(=O)N(C)C)cc2)C(=O)/C1=C\c1ccc[nH]1 [Compound 38, (Z)-4-(4-((1H-Pyrrol-2-yl)methylene)-3-methyl-5-oxo-4,5-dihydro-1H-pyrazol-1-yl)-N,N-dimethylbenzamide] | 29.5 ± 1.8 µM | > 200 µM | > 200 µM | – | – |
| CCCCCCCCCCCCCCCc1cccc(O)c1C(=O)O [I (AA), anacardic acid, reference compound] | – | 39.7 ± 1.1 µM | 22.9 ± 1.3 µM | – | 42.1 µM |
